# Results reported in US10724099B2, “Multiplex methods to assay mixed cell populations simultaneously” (The Broad Institute, Inc., priority 2012, dated 2020).
# Key:
# [1] = tested on: 100 human cancer cell lines; test: CTG (CellTiterGlo ATP), 100 cell lines grown individually; type: cell-based; details: for reduction in cell viability in BRAF V600E mutant lines compared to BRAF wild-type lines: CTG (ATP), individual lines, day 3
# Source text: (§1) To quantitatively compare the 100-cell line PRISM performance to traditional methods, PRISM was compared to the activity of 23 compounds across the same 100 cell lines grown individually, as recently reported (using either ATP content measurements using the CellTiterGlo (CTG), or direct enumeration of cell nuclei using an optical fluorescent imaging method (PerkinElmer Opera system (hereafter, OPTICAL)) and thus served as a gold standard against which PRISM could be compared (Barretina et al., Nature 483, 603 (Mar. 29, 2012)). The same parental cell lines were used in all three methods; in the PRISM method, a barcoded “daughter” line was generated from the common parental cell line. Compounds used in assays were replica-plated from the same source. The cell lines grown individually were assayed at day 3 following compound treatment, whereas the 100-cell line PRISM mixture was analyzed at day 5.
# (§2) To compare the three methods for measuring cell viability, the AUC (Area Under the Curve, measured from the viability vs. logarithm of drug concentration curve) was calculated for each combination of compound and cell line and for each viability measurement method. The CTG and OPTICAL methods were generally correlated with Pearson R=0.801. CTG and PRISM correlated with R=0.663, and OPTICAL and PRISM correlated with R=0.720. […] To investigate whether particular cell lines or specific compounds were disproportionately responsible for divergent predictive results between PRISM and the other methods, we examined the ratio between […] or […]. […] In these rare cases, either the different assay conditions (5-day assay with PRISM, 3-day assay with OPTICAL and CTG) or the assay of cells in mixture might explain the discrepancy. Overall, however, PRISM appears to perform comparably to these other methods in global determinations of sensitivity to compounds in these 100 cell lines.
# [2] = tested on: 100 human cancer cell lines; test: OPTICAL (Opera enumeration of nuclei), 100 cell lines grown individually; type: cell-based; details: for reduction in cell viability in BRAF V600E mutant lines compared to BRAF wild-type lines: OPTICAL (Nuclei), individual lines, day 3
# Source text: as §1, §2
# [3] = tested on: 100 human cancer cell lines; test: PRISM, 100 barcoded cancer cell lines in mixture; type: cell-based; details: for reduction in cell viability in BRAF V600E mutant lines compared to BRAF wild-type lines: mixture, day 5
# Description: PRISM detection was performed as follows. Genomic DNA from cell lysates was amplified by PCR using primers Biotin pLENTR4 (5′-Biotin-[sequence]-3′; SEQ ID NO:3) and pLENTF1 (5′-[sequence]-[sequence]-3′; SEQ ID NO:4). […] PCR without genomic DNA was hybridized with beads to serve as background control; signal for each bead was subtracted from each sample measurement. DMSO-treated cell mixtures were used as reference control for scaling of each cell line signal at the conclusion of each experiment (viability=100 for each cell line).
# To investigate cancer vulnerabilities that are common in multiple cancer types and to examine the extent to which assaying cells in mixture may be complicated by cell-cell interactions, a panel of 100 barcoded cell lines was created comprising 18 different cancer types, and these were challenged in mixture with each of 43 anticancer compounds (including both targeted and general cytotoxic agents) in 8-point dose response. Each compound was represented by 3,200 functional measurements (100 cell lines×8 doses×4 replicates). The assays were performed as follows. Frozen mixtures of barcoded cell lines were thawed (day −2) and replated (day −1) into 384-well microtiter plates. On day 0, compounds suspended in DMSO were pinned into cultures to achieve final concentrations of 0.0012, 0.0049, 0.019, 0.078, 0.3125, 1.25, 5, or 20 μg ml-1. On day 5, cells were washed with phosphate-buffered saline and lysed for 60 minutes at 60° C. in 20 mM Tris-HCl (pH 8.4), 50 mM KCl, 0.45% IGEPAL CA-630 (Sigma cat. 18896), 0.45% Tween-20 (Sigma cat. P9416), and 10% proteinase K (Qiagen cat. 19133). Proteinase K was inactivated by a 15-minute incubation at 95° C.
# [4] = tested on: 24 barcoded human lung adenocarcinoma cell lines; test: In vivo PRISM, xenograft of 24 barcoded lung adenocarcinoma cell lines in NSG mice; details: 50 mg/kg once daily by gavage for 16 days, vs vehicle
# Source text: The tumors were than resected, and the abundance of each cell line measured by PRISM.
# [5] = tested on: 25 barcoded lung adenocarcinoma cell lines; test: PRISM, mixture of 25 barcoded lung adenocarcinoma cell lines; type: cell-based, human; details: for viability relative to DMSO-treated control (relative inhibition profile): cell lines in mixture, 0-10 μM (puromycin 0-10 μg/ml), day 5
# Description: PRISM detection was performed as follows. Genomic DNA from cell lysates was amplified by PCR using primers Biotin pLENTR4 (5′-Biotin-[…]-3′; SEQ ID NO:3) and pLENTF1 (5′-[…]-[…]-3′; SEQ ID NO:4). PCR product was hybridized to Luminex beads with covalently attached antisense barcodes, and streptavidin-phycoerythrin addition, washing, and detection on Luminex FlexMap machines was performed as previously described (Peck et al., Genome Biol 7, R61 (2006)). PCR without genomic DNA was hybridized with beads to serve as background control; signal for each bead was subtracted from each sample measurement. DMSO-treated cell mixtures were used as reference control for scaling of each cell line signal at the conclusion of each experiment (viability=100 for each cell line).
# These lines were barcoded as described above, and equal numbers of cells of each cell lines were mixed together. Cell mixtures were plated in 384-well plates on day −1. On day 0, mixtures were challenged with compounds or vehicle, and on day 5 genomic DNA was harvested and barcodes quantitated. Barcode signal background was determined using beads hybridizing to PCR reactions lacking genomic DNA templates and was subtracted from all measurements. To account for different doubling times of cell lines and different baseline signals for each cell line, the barcode signal for each cell line was scaled to the signal of the vehicle-treated control at the end of the experiment (PRISM schema shown in FIG. 1A), so that the relative growth inhibition of each cell line was assessed.
# HCT-116 cells [6] = test: DNA content by propidium iodide flow cytometry; type: cell-based; details: 10 μM, 24 hours or 48 hours
# Description: In addition, HCT-116 cells were treated with 10 μM of DMSO, or the Aurora Kinase Inhibitors barasertib, GSK1070916, MLN8054, BRD-7880, or tozasertib. 24 hours or 48 hours following treatment, cells were stained with propidium iodide and DNA content per cell was assessed using a Becton Dickinson LSR II flow cytometer.
# HCT-116 cells [7] = test: Western blot phosphoserine 10-histone H3; type: cell-based; details: 10 μM
# Description: Finally, HCT-116 cells were treated with 10 μM of DMSO, barasertib, GSK1070916, MLN8054, BRD-7880, or tozasertib. Cells lysates were probed on Western blot using antibodies (diluted 1:1000) to histone H3 (Abcam cat. no. 24834), phosphoserine 10-histone H3 (Cell Signaling Technology cat no. 3377SS), aurora kinase B (Millipore cat. no. 04-1036), or beta-actin (Santa Cruz Biotechnology cat. no. sc-47778) and detected using a LI-COR Odyssey analyzer.
# 308 kinases = test: Kinase activity profiling, Millipore KinaseProfiler; type: biochemical
Compound,viability relative to DMSO-treated control (relative inhibition profile) [5],reduction in cell viability in BRAF V600E mutant lines compared to BRAF wild-type lines [1],reduction in cell viability in BRAF V600E mutant lines compared to BRAF wild-type lines [2],reduction in cell viability in BRAF V600E mutant lines compared to BRAF wild-type lines [3],DNA content per cell (HCT-116 cells [6]),phosphorylation of serine 10 on histone H3 (HCT-116 cells [7]),other results
C#Cc1cccc(Nc2ncnc3cc(OCCOC)c(OCCOC)cc23)c1 [erlotinib],selective and dose-dependent decrease of four EGFR-mutant cell lines,,,,,,"sensitivity of EGFR-mutant lines compared to EGFR wild-type lines ([1]; CTG, did not reach statistical significance): trend towards increased sensitivity; sensitivity of EGFR-mutant lines compared to EGFR wild-type lines ([2]; OPTICAL, did not reach statistical significance): trend towards increased sensitivity; sensitivity of EGFR-mutant lines compared to EGFR wild-type lines ([3]; did not reach statistical significance): trend towards increased sensitivity; representation of the detectable 19 wt-EGFR lines [4]: mostly unchanged or increased in representation; sensitivity of HCC2935 among the 4 EGFR-mutant lines in vitro ([5]; HCC2935, FIG. 1b): least sensitive"
Cn1cnc2c(F)c(Nc3ccc(Br)cc3Cl)c(C(=O)NOCCO)cc21 [AZD6244],,significant reduction,only a trend towards this reduction,only a trend towards this reduction,,,
Cc1cc(Nc2cc(N3CCN(C)CC3)nc(Sc3ccc(NC(=O)C4CC4)cc3)n2)[nH]n1 [tozasertib],,,,,increased DNA content,decrease phosphorylation of serine 10 on histone H3,"significant inhibition (defined as activity<25% control) across 308 kinases (308 kinases): inhibited aurora kinases A, B, and C, in addition to several other kinases"
CCCS(=O)(=O)Nc1ccc(F)c(C(=O)c2c[nH]c3ncc(Cl)cc23)c1F [PLX4720],,"significant (two-tailed t-test, p<0.05) reductions in cell viability","significant (two-tailed t-test, p<0.05) reductions in cell viability","significant (two-tailed t-test, p<0.05) reductions in cell viability",,,
O=C(O)c1ccc(Nc2ncc3c(n2)-c2ccc(Cl)cc2C(c2c(F)cccc2F)=NC3)cc1 [MLN8054],,,,,increased DNA content,decrease phosphorylation of serine 10 on histone H3,
COc1cc(N2CCC(N3CCN(C)CC3)CC2)ccc1Nc1ncc(Cl)c(Nc2ccccc2S(=O)(=O)C(C)C)n1 [NVP-TAE-684],"selective killing was observed of H3122, but not H2228",,,,,,
CCn1cc(-c2ccnc3[nH]c(-c4cccc(CN(C)C)c4)cc23)c(-c2ccc(NC(=O)N(C)C)cc2)n1 [GSK1070916],,,,,increased DNA content,decrease phosphorylation of serine 10 on histone H3,
Cn1c(Nc2ccc(C(F)(F)F)cc2)nc2cc(Oc3ccnc(-c4ncc(C(F)(F)F)[nH]4)c3)ccc21 [RAF-265],,,,a similar reduction was seen only with PRISM,,,
COc1ccc(C[C@H](N)C(=O)N[C@H]2[C@@H](O)[C@H](n3cnc4c(N(C)C)ncnc43)O[C@@H]2CO)cc1 [puromycin],uniform cell death across the cell line mixture,,,,,,
CNC(=O)c1cc(Oc2ccc(NC(=O)Nc3ccc(Cl)c(C(F)(F)F)c3)cc2)ccn1 [sorafenib],,did not demonstrate significant reductions,did not demonstrate significant reductions,did not demonstrate significant reductions,,,
